The record followed here is patent US9126933B2, “Soft PDE4 inhibitors” (Amakem NV, priority 2011, dated 2015).

pIC50: −log10 of the molar value. Converted amounts (≈) assume the structure as drawn.

The target of one series is T1, recombinant PDE4B1 (Homo sapiens, UniProt Q07343).
T1 construct: host or cells: Sf9 insect cells
In words: PDE4 inhibitory activity screening, PDE4B1 (HTRF, cAMP substrate). The series is classed as biochemical. As to conditions: 40 nM cAMP, 30 minutes, room temperature. The procedure: (§1) Various concentrations of the test compounds were incubated with recombinant PDE4B1 or PDE4D2 (isolated from Sf9 cells), using 40 nM cAMP as enzyme substrate. Incubation time was set to 30 minutes. The reaction was carried out at room temperature. At the end of the incubation time, residual cAMP concentration was determined, using HTRF as detection method.
(§2) The IC50 values (concentration causing a half-maximal inhibition of control specific activity) and Hill coefficients (nH) were determined by non-linear regression analysis of the inhibition curves generated with mean replicate values using Hill equation curve fitting (Y=D+[(A−D)/(1+(C/C50)nH)], where Y=specific activity, D=minimum specific activity, A=maximum specific activity, C=compound concentration, C50=IC50 and nH=slope factor).

The target in a further series is T2, recombinant PDE4D2 (Homo sapiens, UniProt Q08499).
T2 construct: host or cells: Sf9 insect cells
T2 sequence (Q08499 303-809 limits assumed): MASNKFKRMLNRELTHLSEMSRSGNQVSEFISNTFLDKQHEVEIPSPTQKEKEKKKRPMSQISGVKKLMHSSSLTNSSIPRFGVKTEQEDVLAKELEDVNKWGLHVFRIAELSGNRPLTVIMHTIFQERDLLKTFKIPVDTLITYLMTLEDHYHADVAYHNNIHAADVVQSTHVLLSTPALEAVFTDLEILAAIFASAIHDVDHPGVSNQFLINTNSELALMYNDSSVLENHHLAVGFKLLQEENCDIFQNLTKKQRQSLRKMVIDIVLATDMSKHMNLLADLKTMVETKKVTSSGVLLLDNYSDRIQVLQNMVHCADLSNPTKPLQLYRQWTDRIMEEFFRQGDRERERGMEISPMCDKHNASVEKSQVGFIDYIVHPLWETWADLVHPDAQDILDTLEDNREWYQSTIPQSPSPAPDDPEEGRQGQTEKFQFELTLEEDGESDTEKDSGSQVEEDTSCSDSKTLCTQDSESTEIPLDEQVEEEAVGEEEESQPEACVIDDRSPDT
The experiment in a line: PDE4 inhibitory activity screening, PDE4D2 (HTRF, cAMP substrate). The following applies: 40 nM cAMP, 30 minutes, room temperature. The series is classed as biochemical. The procedure: as §1, §2

The nature of series [1]: Solubility in aqueous solution (PBS pH 7.4). The series is classed as physicochemical. As to conditions: phosphate buffer saline (PBS), pH 7.4, aqueous buffer, kinetic from dmso stock; PBS pH7.4, 24 h, room temperature, theoretical concentration 200 μM. The procedure:
Using a 10 mM stock solution of each compound in 100% DMSO, dilutions were prepared to a theoretical concentration of 200 μM in both phosphate buffer saline (PBS), pH7.4 and in 100% DMSO (as reference). Solutions (triplicates) were incubated at room temperature for 24 h on a shaker at 100 rpm. The solutions were then centrifugated at 13000 rpm for 30 min and the supernatant was further diluted to 2 μM in methanol. The supernatant was then analyzed by LC-MSMS. The concentration of compound in PBS supernatant was determined by comparing the MS peak area with that of the reference solution in DMSO.

The nature of series [2]: Stability assay in human plasma. The following applies: 1 μM compound. The series is classed as in vitro ADME. The procedure: Compounds are incubated at a concentration of 1 μM in rat (mice/rabbit/dog/rabbit) or human plasma. Samples are taken at fixed time points and the remnant of compound is determined by LC-MS/MS after protein precipitation. Half life of the compound is expressed in minutes.

Series [3] in a line: Membrane permeability, Pampa assay. As to conditions: for Papp at 5 h, 10 μM: PAMPA, pH 7.4.
Protocol: The capacity of compounds of the invention to cross a lipophilic membrane was evaluated in a Pampa assay, using an assay plate containing structured layers of phospholipids supported on a PVDF filter (Benton Dickinson). […] Each compound was tested in triplicate and was prepared as a 10 μM solution in 10 mM PBS pH=7.4 buffer containing 2% DMSO. Compounds were dosed in the donor chamber of the assay plate and incubated for 5 hours, at room temperature. Additionally, an equilibrium solution plate containing 6 μM of test compound was prepared. Test compound concentration in donor and acceptor chamber and in the equilibrium plate was quantified using HPLC-MS/MS. The subsequently calculated permeability coefficients were reported as Papp.
Series [4] is described as follows: Stability assay in aqueous humor. The series is classed as in vitro ADME. The following applies: rabbit aqueous humor, 1 μM compound. The procedure: Compounds are incubated at a concentration of 1 μM in human or animal (e.g. rabbit) aqueous humor (AH). Samples are taken at fixed time points and the remnant of compound is determined by LC-MS/MS after protein precipitation.

T1 sequence (Q07343 whole entry): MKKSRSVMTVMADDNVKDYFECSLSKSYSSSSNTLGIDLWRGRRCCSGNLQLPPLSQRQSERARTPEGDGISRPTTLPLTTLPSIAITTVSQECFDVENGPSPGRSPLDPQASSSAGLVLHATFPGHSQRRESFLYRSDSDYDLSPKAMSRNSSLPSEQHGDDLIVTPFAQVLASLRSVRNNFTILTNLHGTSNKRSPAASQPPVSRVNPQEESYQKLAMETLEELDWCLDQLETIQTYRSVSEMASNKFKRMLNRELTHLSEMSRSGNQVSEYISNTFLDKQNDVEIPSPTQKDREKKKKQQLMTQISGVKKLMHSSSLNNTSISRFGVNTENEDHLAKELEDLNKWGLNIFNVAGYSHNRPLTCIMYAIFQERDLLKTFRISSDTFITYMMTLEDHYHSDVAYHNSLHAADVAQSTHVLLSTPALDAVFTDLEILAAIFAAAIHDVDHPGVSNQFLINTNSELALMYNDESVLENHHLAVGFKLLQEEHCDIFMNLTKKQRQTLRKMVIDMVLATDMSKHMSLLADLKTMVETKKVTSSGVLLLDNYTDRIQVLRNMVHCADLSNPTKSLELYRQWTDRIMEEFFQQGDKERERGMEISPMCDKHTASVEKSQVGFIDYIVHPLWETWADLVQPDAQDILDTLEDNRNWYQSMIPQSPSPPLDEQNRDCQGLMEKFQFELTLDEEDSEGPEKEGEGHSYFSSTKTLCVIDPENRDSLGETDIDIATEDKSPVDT

On to `CCCOC(=O)CCCCOc1cc(C(=O)Nc2c(Cl)cncc2Cl)ccc1OC(F)F` [Compound 1, propyl 5-[5-{[(3,5-dichloropyridin-4-yl)amino]carbonyl}-2-(difluoromethoxy)phenoxy]pentanoate], for which the pIC50 on recombinant PDE4B1 and at recombinant PDE4D2 was 7.00 to 8.00 each time. For the same molecule, the solubility at 24 h in series [1] was in the range of 10 to 100 µM (≈ 4.91 to 49.1 µg/mL).
`O=C(CCCCOc1cc(C(=O)Nc2c(Cl)cncc2Cl)ccc1OC(F)F)Oc1ccccc1` [Compound 2, phenyl 5-[5-{[(3,5-dichloropyridin-4-yl)amino]carbonyl}-2-(difluoromethoxy)phenoxy]pentanoate]: the pIC50 on recombinant PDE4B1 and at recombinant PDE4D2 was 7.00 to 8.00 throughout. This molecule showed a half-life at 1 μM in series [2] of less than 15 min. Besides, the solubility at 24 h in series [1] fell in the range of 10 to 100 µM (≈ 5.25 to 52.5 µg/mL).
In the case of `O=C(CCCCOc1cc(C(=O)Nc2c(Cl)cncc2Cl)ccc1OC(F)F)Oc1ccccc1F` [Compound 3], the pIC50 at recombinant PDE4B1 was 7.00 to 8.00; on recombinant PDE4D2, 6.30 to 7.00. This molecule also displayed a half-life at 1 μM in series [2] of less than 15 min. In series [1], the solubility at 24 h is less than 10 µM.
As for `O=C(CCCCOc1cc(C(=O)Nc2c(Cl)cncc2Cl)ccc1OC(F)F)OCc1ccccc1` [Compound 4], the results for the pIC50 on recombinant PDE4B1 and at recombinant PDE4D2 were 7.00 to 8.00 and 6.30 to 7.00, respectively. The molecule also displayed a solubility at 24 h in series [1] of less than 10 µM.
On to `O=C(CCCCOc1cc(C(=O)Nc2c(Cl)cncc2Cl)ccc1OC(F)F)OCCN1CCOCC1` [Compound 5], for which the pIC50 at recombinant PDE4B1 and at recombinant PDE4D2 was greater than 8.00 throughout. For the same molecule, in series [2], the half-life at 1 μM lay in the range of 15 to 60 min. In addition, in series [1], the solubility at 24 h is greater than 100 µM.
For `O=C(CCCCOc1cc(C(=O)Nc2c(Cl)cncc2Cl)ccc1OC(F)F)OCC1CCCO1` (stereo not shown) [Compound 6], the pIC50 was greater than 8.00 on recombinant PDE4B1 and 7.00 to 8.00 on recombinant PDE4D2. In series [2], the half-life at 1 μM was 15 to 60 min.
Regarding `COCCOC(=O)CCCCOc1cc(C(=O)Nc2c(Cl)cncc2Cl)ccc1OC(F)F` [Compound 7], the negative-log IC50 (pIC50) at recombinant PDE4B1 is greater than 8.00; on recombinant PDE4D2 it was 7.00 to 8.00. Moreover, in series [2], the half-life at 1 μM lay within 15 to 60 min. In series [1], this molecule registered a solubility at 24 h greater than 100 µM. This molecule displayed a Papp at 5 h, 10 μM in series [3] of 9.2 ×10⁻⁶ cm/s.
For `O=C(CCCCOc1cc(C(=O)Nc2c(Cl)cncc2Cl)ccc1OC(F)F)OCCN1CCCC1` [Compound 8] the same measures were greater than 8.00, 7.00 to 8.00, less than 15 min, greater than 100 µM and 7.5 ×10⁻⁶ cm/s.
In the same order, the values of `CN(C)CCOC(=O)CCCCOc1cc(C(=O)Nc2c(Cl)cncc2Cl)ccc1OC(F)F` [Compound 9] are 7.00 to 8.00, 7.00 to 8.00, less than 15 min, 10 to 100 µM (≈ 5.2 to 52 µg/mL) and 3 ×10⁻⁶ cm/s.
Turning to `O=C(CCCCOc1cc(C(=O)Nc2c(Cl)cncc2Cl)ccc1OC(F)F)NCCSC1CCOC1=O` (stereo not shown) [Compound 10], the pIC50 on recombinant PDE4B1 and on recombinant PDE4D2 was greater than 8.00 throughout. This molecule returned a half-life at 1 μM in series [2] of less than 15 min. In series [1], this molecule registered a solubility at 24 h greater than 100 µM. For the same molecule, the Papp at 5 h, 10 μM in series [3] was determined as 3.7 ×10⁻⁶ cm/s.
On to `O=C(Nc1c(Cl)cncc1Cl)c1ccc(OC(F)F)c(OCCCSC2CCOC2=O)c1` (stereo not shown) [Compound 13], for which the pIC50 on recombinant PDE4B1 and on recombinant PDE4D2 was greater than 8.00 each time. For the same molecule, in series [2], the half-life at 1 μM was less than 15 min. Besides, in series [1], the solubility at 24 h is 10 to 100 µM (≈ 5.07 to 50.7 µg/mL). In addition, the “Papp (Pampa; 10^−6 cm/s)” value in series [3] (10 μM in 10 mM PBS pH=7.4, 2% DMSO, 5 hours, room temperature) was 6.6 10^−6 cm/s.
Consider `COC(=O)CNCCCOc1cc(C(=O)Nc2c(Cl)cncc2Cl)ccc1OC(F)F` [Compound 15], for which the negative logarithm of the IC50 (pIC50) at recombinant PDE4B1 and on recombinant PDE4D2 was 7.00 to 8.00 in each case. The half-life at 1 μM in series [2] is 15 to 60 min; in series [4], 60 to 120 min. In series [1], this molecule showed a solubility at 24 h greater than 100 µM. Also, in series [3], the Papp at 5 h, 10 μM amounted to 5.6 ×10⁻⁶ cm/s.
With `COC(=O)Cc1cccc(NCCCOc2cc(C(=O)Nc3c(Cl)cncc3Cl)ccc2OC(F)F)c1` [Compound 16], the values for the pIC50 at recombinant PDE4B1 and on recombinant PDE4D2 were greater than 8.00 and 7.00 to 8.00, respectively. This molecule also displayed a half-life at 1 μM in series [2] of less than 15 min. The molecule also had a solubility at 24 h in series [1] of less than 10 µM.
Take `COC(=O)c1cccc(SCCCOc2cc(C(=O)Nc3c(Cl)cncc3Cl)ccc2OC(F)F)c1` [Compound 17]: the pIC50 at recombinant PDE4B1 and at recombinant PDE4D2 was 6.30 to 7.00 each time. The molecule further had a solubility at 24 h in series [1] of less than 10 µM.
For `COC(=O)c1ccc(SCCCOc2cc(C(=O)Nc3c(Cl)cncc3Cl)ccc2OC(F)F)cc1` [Compound 18], the pIC50 at recombinant PDE4B1 and on recombinant PDE4D2 was 6.30 to 7.00 each time.
`COC(=O)c1ccc(Oc2cc(C(=O)Nc3c(Cl)cncc3Cl)ccc2OC(F)F)cc1` [Compound 21, Methyl 4-(5-((3,5-dichloropyridin-4-yl)carbamoyl)-2-(difluoromethoxy)phenoxy)benzoate]: the figures for the pIC50 on recombinant PDE4B1 and on recombinant PDE4D2 were 7.00 to 8.00 and less than 6.30, respectively. The molecule further returned a half-life at 1 μM in series [4] greater than 120 min. The solubility at 24 h in series [1] fell in the range of 10 to 100 µM (≈ 4.83 to 48.3 µg/mL).
For `CCOC(=O)c1cccc(Oc2cc(C(=O)Nc3c(Cl)cncc3Cl)ccc2OC(F)F)c1` [Compound 22, Ethyl 3-(5-((3,5-dichloropyridin-4-yl)carbamoyl)-2-(difluoromethoxy)phenoxy)benzoate], the figures for the pIC50 at recombinant PDE4B1 and at recombinant PDE4D2 were 7.00 to 8.00 and 6.30 to 7.00, respectively.
For `O=C(Nc1c(Cl)cncc1Cl)c1ccc(OC(F)F)c(OCCCSc2cccc(C(=O)OCCO)c2)c1` [Compound 23] the same measures were 7.00 to 8.00 and 7.00 to 8.00.
In the case of `CN(C)CCOC(=O)c1cccc(SCCCOc2cc(C(=O)Nc3c(Cl)cncc3Cl)ccc2OC(F)F)c1` [Compound 24], the pIC50 at recombinant PDE4B1 and at recombinant PDE4D2 was 7.00 to 8.00 each time. The half-life at 1 μM in series [2] was less than 15 min.
With `O=C(Nc1c(Cl)cncc1Cl)c1ccc(OC(F)F)c(OCCCSc2ccc(C(=O)OCCO)cc2)c1` [Compound 25], the pIC50 on recombinant PDE4B1 and at recombinant PDE4D2 was 7.00 to 8.00 throughout.
With `CN(C)CCOC(=O)c1ccc(SCCCOc2cc(C(=O)Nc3c(Cl)cncc3Cl)ccc2OC(F)F)cc1` [Compound 26], the pIC50 at recombinant PDE4B1 is 7.00 to 8.00; at recombinant PDE4D2 it was greater than 8.00. Also, in series [2], the half-life at 1 μM was less than 15 min.
Turning to `O=C(Nc1c(Cl)cncc1Cl)c1ccc(OC(F)F)c(Oc2ccc(C(=O)OCCO)cc2)c1` [Compound 27], the pIC50 on recombinant PDE4B1 and at recombinant PDE4D2 was 7.00 to 8.00 in each case. The half-life at 1 μM in series [4] was greater than 120 min. This molecule also had a Papp at 5 h, 10 μM in series [3] of 2.3 ×10⁻⁶ cm/s.
Regarding `CN(C)CCOC(=O)c1ccc(Oc2cc(C(=O)Nc3c(Cl)cncc3Cl)ccc2OC(F)F)cc1` [Compound 28], the pIC50 on recombinant PDE4B1 is 7.00 to 8.00; at recombinant PDE4D2, 6.30 to 7.00. Further, the half-life at 1 μM in series [2] lay in the range of 15 to 60 min; in series [4], 60 to 120 min. Further, the Papp at 5 h, 10 μM in series [3] came out at 7.9 ×10⁻⁶ cm/s.
With `O=C(Nc1c(Cl)cncc1Cl)c1ccc(OC(F)F)c(Oc2cccc(C(=O)OCCO)c2)c1` [Compound 29], the pIC50 at recombinant PDE4B1 was greater than 8.00; at recombinant PDE4D2 it was 7.00 to 8.00. For the same molecule, in series [3], the apparent permeability coefficient (Papp) at 5 h, 10 μM worked out at 5.1 ×10⁻⁶ cm/s.
For `CN(C)CCOC(=O)c1cccc(Oc2cc(C(=O)Nc3c(Cl)cncc3Cl)ccc2OC(F)F)c1` [Compound 30], the pIC50 is greater than 8.00 at recombinant PDE4B1 and 7.00 to 8.00 on recombinant PDE4D2. The molecule also yielded a half-life at 1 μM in series [2] of less than 15 min. The same molecule had a Papp at 5 h, 10 μM in series [3] of 5.3 ×10⁻⁶ cm/s.
In the case of `O=C(Nc1c(Cl)cncc1Cl)c1ccc(OC(F)F)c(OCCCCNC(CCO)C(=O)O)c1` (stereo not shown) [Met1], the pIC50 at recombinant PDE4B1 and on recombinant PDE4D2 was 6.30 to 7.00 throughout. The Papp at 5 h, 10 μM in series [3] was 0.03 ×10⁻⁶ cm/s.
On to `O=C(Nc1c(Cl)cncc1Cl)c1ccc(OC(F)F)c(OCCCNC(CCO)C(=O)O)c1` (stereo not shown) [Met2], for which the pIC50 on recombinant PDE4B1 and at recombinant PDE4D2 was less than 6.30 in each case. This molecule showed an apparent permeability (Papp) at 5 h, 10 μM in series [3] of 0.02 ×10⁻⁶ cm/s.
`O=C(O)CNCCCOc1cc(C(=O)Nc2c(Cl)cncc2Cl)ccc1OC(F)F` [Met3, 2-[(3-{5-[(3,5-dichloropyridin-4-yl)carbamoyl]-2-(difluoromethoxy)phenoxy}propyl)amino]acetic acid]: the pIC50 on recombinant PDE4B1 and on recombinant PDE4D2 was less than 6.30 throughout. Besides, the Papp at 5 h, 10 μM in series [3] amounted to 0.02 ×10⁻⁶ cm/s.
As to `O=C(Nc1c(Cl)cncc1Cl)c1ccc(OC(F)F)c(OCC2CC2)c1` [Roflumilast, reference compound], the solubility at 24 h in series [1] was less than 10 µM.
